Data: ChEMBL document CHEMBL1147445, “Antagonists of human CCR5 receptor containing 4-(pyrazolyl)piperidine side chains. Part 2: Discovery of potent, selective, and orally bioavailable compounds” (Bioorg Med Chem Lett, 2004)

tested on: Rattus norvegicus; assay: Area under curve in rat after p.o. administration; conditions: in vivo, po

AUC N [uM hr dose-1]	SMILES
0.13	CCn1nc(Cc2ccccc2)cc1C1CCN(C[C@H]2CN([C@H](CC(C)C)C(=O)O)C[C@@H]2c2ccccc2)CC1
0.05	CCn1nc(Cc2ccccc2)cc1C1CCN(C[C@H]2CN([C@H](CC3CCC3)C(=O)O)C[C@@H]2c2cccc(F)c2)CC1
0.45	CCn1nc(Cc2ccccc2)cc1C1CCN(C[C@H]2CN([C@@H](C(=O)O)C(C)C)C[C@@H]2c2ccccc2)CC1

molecular target: T1, C-C chemokine receptor type 5 (Homo sapiens, UniProt P51681); assay: Inhibitory concentration of compound to displace GP120 from […] chemokine receptor 5; conditions: not given
T1 sequence (P51681 whole entry): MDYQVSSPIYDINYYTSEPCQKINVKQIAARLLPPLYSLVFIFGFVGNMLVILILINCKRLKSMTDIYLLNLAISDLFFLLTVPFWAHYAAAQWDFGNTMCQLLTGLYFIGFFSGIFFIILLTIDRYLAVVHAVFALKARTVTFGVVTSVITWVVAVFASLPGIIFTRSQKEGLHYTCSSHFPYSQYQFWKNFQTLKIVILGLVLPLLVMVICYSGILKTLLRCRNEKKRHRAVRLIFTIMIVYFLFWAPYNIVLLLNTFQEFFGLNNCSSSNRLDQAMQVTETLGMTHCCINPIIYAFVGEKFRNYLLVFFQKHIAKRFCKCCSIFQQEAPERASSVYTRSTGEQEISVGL

IC50 [nM]	SMILES
2.9	CCn1nc(Cc2ccccc2)cc1C1CCN(C[C@H]2CN([C@H](CC(C)C)C(=O)O)C[C@@H]2c2ccccc2)CC1
2.8	CCn1nc(Cc2ccccc2)cc1C1CCN(C[C@H]2CN([C@@H](C(=O)O)C(C)C)C[C@@H]2c2ccccc2)CC1

tested on: Rattus norvegicus; assay: Volumes of distribution in rat after po administration; conditions: in vivo

Vdss [L/kg]	SMILES
2.1	CCn1nc(Cc2ccccc2)cc1C1CCN(C[C@H]2CN([C@H](CC(C)C)C(=O)O)C[C@@H]2c2ccccc2)CC1

tested on: Rattus norvegicus; assay: Area under curve in rat after peroral administration; type: ADME, organism-based; conditions: in vivo, po

AUC N [uM hr dose-1]	SMILES
0.02	CCn1nc(Cc2ccccc2)cc1C1CCN(C[C@H]2CN([C@@H](C(=O)O)C3CCCCC3)C[C@@H]2c2ccccc2)CC1

molecular target: T1, C-C chemokine receptor type 5; assay: Displacement of [125I]-MIP-1 alpha from human […] chemokine receptor 5 expressed in CHO cells; type: cell-based; conditions: not given

SMILES	IC50 [nM]
CCn1nc(Cc2ccccc2)cc1C1CCN(C[C@H]2CN([C@@H](C(=O)O)C3CCCCC3)C[C@@H]2c2cccc(F)c2)CC1	1.6
CCn1nc(Cc2ccccc2)cc1C1CCN(C[C@H]2CN([C@@](C)(C(=O)O)C(C)C)C[C@@H]2c2cccc(F)c2)CC1	1.6

Other lines, results leading:

IC50 [nM]	SMILES
0.9	CC[C@H](C)[C@H](C(=O)O)N1C[C@H](CN2CCC(c3cc(Cc4ccccc4)nn3CC)CC2)[C@@H](c2cccc(F)c2)C1
1.2	CCn1nc(Cc2ccccc2)cc1C1CCN(C[C@H]2CN([C@H](CC3CCC3)C(=O)O)C[C@@H]2c2cccc(F)c2)CC1

molecular target: T1, C-C chemokine receptor type 5; assay: Inhibitory concentration of compound to displace GP120 from […] chemokine receptor 5; conditions: not given; remark: another data set of the same source

IC50 [nM]	SMILES
2	CCn1nc(Cc2ccccc2)cc1C1CCN(C[C@H]2CN([C@@H](C(=O)O)C3CCCCC3)C[C@@H]2c2ccccc2)CC1

tested on: not listed separately; assay: Inhibition of HIV-1 infectivity using peripheral bloodmonon uclear cells against the BAL-1 strain; type: functional; conditions: Homo sapiens

SMILES	IC95 [nM]
CCn1nc(Cc2ccccc2)cc1C1CCN(C[C@H]2CN([C@@H](C(=O)O)C3CCCCC3)C[C@@H]2c2ccccc2)CC1	< 8
CCn1nc(Cc2ccccc2)cc1C1CCN(C[C@H]2CN([C@H](CC(C)C)C(=O)O)C[C@@H]2c2ccccc2)CC1	< 8
CCn1nc(Cc2ccccc2)cc1C1CCN(C[C@H]2CN([C@H](CC3CCC3)C(=O)O)C[C@@H]2c2cccc(F)c2)CC1	< 0.8

tested on: not listed separately; assay: in vivo; conditions: rat, plasma

clearance [mL/min/kg]	SMILES
43	CCn1nc(Cc2ccccc2)cc1C1CCN(C[C@H]2CN([C@H](CC(C)C)C(=O)O)C[C@@H]2c2ccccc2)CC1

tested on: not listed separately; assay: Oral bioavailability in rat; conditions: in vivo

bioavailability [%]	SMILES
17	CCn1nc(Cc2ccccc2)cc1C1CCN(C[C@H]2CN([C@H](CC(C)C)C(=O)O)C[C@@H]2c2ccccc2)CC1
7.3	CCn1nc(Cc2ccccc2)cc1C1CCN(C[C@H]2CN([C@H](CC3CCC3)C(=O)O)C[C@@H]2c2cccc(F)c2)CC1
17	CCn1nc(Cc2ccccc2)cc1C1CCN(C[C@H]2CN([C@@H](C(=O)O)C(C)C)C[C@@H]2c2ccccc2)CC1

tested on: not listed separately; assay: in vivo; conditions: rat

half-life [h]	SMILES
1.2	CCn1nc(Cc2ccccc2)cc1C1CCN(C[C@H]2CN([C@H](CC(C)C)C(=O)O)C[C@@H]2c2ccccc2)CC1
0.71	CCn1nc(Cc2ccccc2)cc1C1CCN(C[C@H]2CN([C@H](CC3CCC3)C(=O)O)C[C@@H]2c2cccc(F)c2)CC1
5.6	CCn1nc(Cc2ccccc2)cc1C1CCN(C[C@H]2CN([C@@H](C(=O)O)C(C)C)C[C@@H]2c2ccccc2)CC1

tested on: not listed separately; assay: Clearance rat (dosed at 0.5 mpk IV and 2.0 mpk po.); type: ADME, organism-based; conditions: plasma, 0.5 mg/kg, read-out: Clp

clearance [mL/min/kg]	SMILES
46	CCn1nc(Cc2ccccc2)cc1C1CCN(C[C@H]2CN([C@H](CC3CCC3)C(=O)O)C[C@@H]2c2cccc(F)c2)CC1
12.6	CCn1nc(Cc2ccccc2)cc1C1CCN(C[C@H]2CN([C@@H](C(=O)O)C(C)C)C[C@@H]2c2ccccc2)CC1

tested on: HeLa; assay: In vitro antiviral activity against HIV-1 infected HeLa cells; type: functional; conditions: Homo sapiens

SMILES	IC90 [nM]
CCn1nc(Cc2ccccc2)cc1C1CCN(C[C@H]2CN([C@@H](C(=O)O)C3CCCCC3)C[C@@H]2c2ccccc2)CC1	0.4
CCn1nc(Cc2ccccc2)cc1C1CCN(C[C@H]2CN([C@H](CC(C)C)C(=O)O)C[C@@H]2c2ccccc2)CC1	3.7
CCn1nc(Cc2ccccc2)cc1C1CCN(C[C@H]2CN([C@@H](C(=O)O)C3CCCCC3)C[C@@H]2c2cccc(F)c2)CC1	0.4
CCn1nc(Cc2ccccc2)cc1C1CCN(C[C@H]2CN([C@@](C)(C(=O)O)C(C)C)C[C@@H]2c2cccc(F)c2)CC1	300
CCn1nc(Cc2ccccc2)cc1C1CCN(C[C@H]2CN([C@@H](C(=O)O)C(C)C)C[C@@H]2c2ccccc2)CC1	11

Further lines, results first:

IC90 [nM]	SMILES
0.4	CC[C@H](C)[C@H](C(=O)O)N1C[C@H](CN2CCC(c3cc(Cc4ccccc4)nn3CC)CC2)[C@@H](c2cccc(F)c2)C1
0.4	CCn1nc(Cc2ccccc2)cc1C1CCN(C[C@H]2CN([C@H](CC3CCC3)C(=O)O)C[C@@H]2c2cccc(F)c2)CC1

tested on: not listed separately; assay: Inhibition of HIV-1 infectivity using peripheral bloodmonon uclear cells against the BAL-1 strain in the presence of 50% normal human serum (NHS); type: functional; conditions: not given

SMILES	IC95 [nM]
CCn1nc(Cc2ccccc2)cc1C1CCN(C[C@H]2CN([C@@H](C(=O)O)C3CCCCC3)C[C@@H]2c2ccccc2)CC1	< 8
CCn1nc(Cc2ccccc2)cc1C1CCN(C[C@H]2CN([C@H](CC(C)C)C(=O)O)C[C@@H]2c2ccccc2)CC1	125
CCn1nc(Cc2ccccc2)cc1C1CCN(C[C@H]2CN([C@H](CC3CCC3)C(=O)O)C[C@@H]2c2cccc(F)c2)CC1	35
